Data set [1] has as its target T1, KRasG12C (Homo sapiens, UniProt P01116, G12C).
T1 construct: biotin (biotinylated); made in house
As to the kind of experiment: KRasG12C functional assay (HTRF/FRET nucleotide exchange and Raf RBD binding). Format: biochemical. As to conditions: samples incubated for 4 hrs, FRET readout, single experiment or average of two or more. On the procedure: All enzyme and substrate solutions were prepared in assay buffer containing 20 mM HEPES (pH 7.5), 5 mM MgCl2, 150 mM NaCl, and 0.01% Tween 20. […] In a separate mix 20 nM GST-Raf Ras binding domain (GST-Raf RBD, purified in house) and 4 μg/ml anti-GST XL665 antibody (Cisbio) was prepared in assay buffer containing 50 mM Potassium Fluoride and 0.05 mg/ml BSA and equilibrated for 4 hours before adding 0.6 μM Guanosine 5′-[γ-thio]triphosphate (GTPγS, Sigma) and 0.08 μM SOS (purified in house). 5 μl of the GST-RAF RBD mix was then dispensed into each well of the assay plate. […] This is detected simultaneously via the specific binding interaction between active GTPγS KRas^G12C with GST-Raf RBD which brings the europium and XL665 into close proximity enabling an increased FRET signal to be detected on a Pherastar (BMG) plate reader equipped with the HTRF filter module. […] IC50 values were calculated from normalised dose-response response FRET data curve fitted in Genedata screener (Basel, Switzerland).
(In general: In TR-FRET formats the signal depends on donor and acceptor labels being close together.)

In data set [2] the target is T1, KRasG12C. As to the kind of experiment: KRasG12C mass spectrometry adducting assay. Format: binding. Conditions: test compound final concentration 10 μM, 4 hours reaction with 4 μM GDP loaded biotinylated KRasG12C. How it is done: Enzyme solutions were prepared in assay buffer containing 20 mM HEPES (pH 7.5), 5 mM MgCl2, and 150 mM NaCl. […] The plate was sealed before reading on a Xevo G2 QTOF (Waters) and Acquity LC system (Waters). 10 μl of sample was injected onto a Xbridge BEH300; C4; 3.5 um; 2.1×50 mm column (Waters) running a 3 minute gradient. Blank samples were run in between each test sample.
Data was analysed in Mass Lynx software (Waters), the Total ion count (TIC) trace was used and the eluted protein peak data combined. Using the combined spectrum the data was deconvoluted using MaxEnt1 method. The peak area for apo-protein KRas^G12C (APO) and KRAS+relative cmpd mass (adduct) were measured, and a percentage adduct was calculated using the following calculation: Percent adduct=100*(area of adduct peak/(sum of APO+adduct peaks).
The data from this mass spectrometry adducing assay is presented in the column labelled KRasG12C M.S. Binding Mean adduct % in Table A below.

The subject of a further data set is MDR1 (Pgp) and BCRP. As to the kind of experiment: Blood brain barrier penetrant assessment: efflux ratio in MDCK_MDR1_BCRP cells. In kind it is in vitro ADME. As to conditions: human, MDCK cells doubly transfected with MDR1 (Pgp) and BCRP, ratio of 2 or less = potential for good BBB penetration, read-out: Hu MDCK-MDR1-BCRP (0.1 uM) Mean Efflux Ratio. On the procedure: In order to evaluate blood brain barrier (BBB) penetrant properties the efflux properties of compounds according to the specification was measured in cells transfected with the major efflux pumps expressed in the endothelial cells of the BBB. The assessment of efflux properties was performed using Madin-Darby Canine Kidney (MDCK) cells doubly transfected with MDR1 (Pgp) and BCRP. The transfected cell line, MDCK_MDR1_BCRP, thus expresses the two main efflux pumps that actively serve to exclude transit of compounds across the BBB and the efflux ration from these cell can be measured as described in the literature (Durant et al, Sci. Adv. 2018; eeat:1719). A compound that has an efflux ratio of 2 or less as measured by this technique is identified as having the potential for good BBB penetrant properties (Colclough et al, Drug Disc. Today 2019; 24(5), 1067-73).

Setting [3] is: KRasG12C functional assay IC50, GDP loaded biotinylated KRasG12C.
The mark [4] stands for this setting: GDP loaded biotinylated KRasG12C, read-out: KRasG12C functional assay IC50.

In general, IC50 refers to the concentration that inhibits the measured activity by half.

Molecules are shown by their SMILES. Where two headings read alike, the source gives them in different places.

T1 sequence (P01116 1-188 isoform P01116-2 G12C): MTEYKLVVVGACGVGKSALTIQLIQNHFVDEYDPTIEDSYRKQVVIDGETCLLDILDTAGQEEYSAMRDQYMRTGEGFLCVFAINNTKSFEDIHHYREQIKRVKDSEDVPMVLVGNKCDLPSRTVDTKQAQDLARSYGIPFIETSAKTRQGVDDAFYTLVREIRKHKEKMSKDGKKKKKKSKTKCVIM

Molecule `C=CC(=O)N1CCN2Cc3ccc(-c4c(C)ccc5[nH]ncc45)c(Cl)c3OC[C@@H]2C1` (single isomer, unassigned) [Example 3] had an IC50 on KRasG12C [1] (setting [3]) of 1410 nM. In addition, the “KRasG12C M.S. Binding Mean adduct %” value on KRasG12C [2] is on record as 80%.
The matching figures for `C=CC(=O)N1CCN2C(=O)c3ccc(-c4c(C)ccc5[nH]ncc45)c(Cl)c3OC[C@H]2C1` (single isomer, unassigned) [Example 8]: 698 nM and 91%.
On to `C=CC(=O)N1CCN2Cc3ccc(-c4c(C)ccc5[nH]ncc45)c(Cl)c3OC[C@H]2C1` (single isomer, unassigned) [Example 10], for which, on KRasG12C [1] (setting [3]), the IC50 was determined as 332 nM. For the same molecule, the “KRasG12C M.S. Binding Mean adduct %” value at KRasG12C [2] is 97%.
Consider `C=CC(=O)N1CCN2C(=O)c3cc(F)c(-c4c(O)cccc4F)c(Cl)c3OC[C@H]2C1` (single isomer, unassigned) [Example 11], for which the IC50 at KRasG12C [1] (setting [4]) is 67 nM. Further, in the data set with MDR1 (Pgp) and BCRP, the efflux ratio at 0.1 uM was found to be 0.5.
The matching figures for `C=CC(=O)N1CCN2Cc3cc(Cl)c(-c4c(O)cccc4F)c(Cl)c3OC[C@H]2C1` (single isomer, unassigned) [Example 27]: 24 nM and 0.8.
Take `C=CC(=O)N1CCN2Cc3cc(F)c(-c4c(O)cccc4Cl)c(Cl)c3OC[C@H]2C1` (single isomer, unassigned) [Example 35]: the IC50 at KRasG12C [1] (setting [4]) stood at 42 nM. Besides, in the data set on MDR1 (Pgp) and BCRP, the efflux ratio at 0.1 uM came out at 1.8.
The matching figures for `C=CC(=O)N1CCN2Cc3cc(F)c(-c4c(O)cccc4C(F)(F)F)c(F)c3OC[C@H]2C1` (single isomer, unassigned) [Example 49]: 65 nM and 0.9.
As for `C=CC(=O)N1CCN2Cc3cc(F)c(-c4c(O)cccc4C(F)F)c(F)c3OC[C@H]2C1` (single isomer, unassigned) [Example 53], the IC50 at KRasG12C [1] (setting [4]) is 660 nM. Further, the efflux ratio at 0.1 uM in the data set with MDR1 (Pgp) and BCRP worked out at 1.5.
The matching figures for `C=CC(=O)N1CCN2Cc3cc(F)c(-c4c(O)cccc4Br)c(F)c3OC[C@H]2C1` (single isomer, unassigned) [Example 59]: 32 nM and 0.8.
Take `C=CC(=O)N1CCN2Cc3cc(Cl)c(-c4c(C)cccc4O)c(F)c3OC[C@H]2C1` (single isomer, unassigned) [Example 61]: at KRasG12C [1] (setting [4]), the IC50 came out at 27.7 nM. The efflux ratio at 0.1 uM with MDR1 (Pgp) and BCRP came to 0.3.
Consider `C#Cc1c2c(cc(F)c1-c1c(C)cccc1O)CN1CCN(C(=O)C=C)C[C@@H]1CO2` (single isomer, unassigned) [Example 65], for which the IC50 at KRasG12C [1] (setting [4]) stood at 182 nM. Further, the efflux ratio at 0.1 uM in the data set on MDR1 (Pgp) and BCRP came out at 1.4.
`C#Cc1cc2c(c(F)c1-c1c(O)cccc1Cl)OC[C@H]1CN(C(=O)C=C)CCN1C2` (single isomer, unassigned) [Example 76] displayed an IC50 at KRasG12C [1] (setting [3]) of 18.6 nM. In addition, in the data set with MDR1 (Pgp) and BCRP, the efflux ratio at 0.1 uM is 0.8.
On to `C#Cc1cc2c(c(Cl)c1-c1c(O)cccc1F)OC[C@H]1CN(C(=O)C=C)CCN1C2` (single isomer, unassigned) [Example 80], for which, at KRasG12C [1] (setting [4]), the IC50 came to 83 nM. In the data set on MDR1 (Pgp) and BCRP, the efflux ratio at 0.1 uM is 0.7.
`C=CC(=O)N1CCN2Cc3cc(Cl)c(-c4c(O)cccc4Cl)c(F)c3OC[C@H]2C1` (single isomer, unassigned) [Example 84] displayed an IC50 at KRasG12C [1] (setting [3]) of 25 nM. Further, the efflux ratio at 0.1 uM with MDR1 (Pgp) and BCRP is 0.6.
On KRasG12C [1] (setting [3]), `C=CC(=O)N1CCN2Cc3cc(C#CC)c(-c4c(O)cccc4Cl)c(F)c3OC[C@H]2C1` (single isomer, unassigned) [Example 86] yielded an IC50 of 15 nM. Moreover, in the data set with MDR1 (Pgp) and BCRP, the efflux ratio at 0.1 uM stood at 0.9.
As to `C#Cc1cc2c(c(C)c1-c1c(O)cccc1Cl)OC[C@H]1CN(C(=O)C=C)CCN1C2` (single isomer, unassigned) [Example 90], the IC50 at KRasG12C [1] (setting [4]) was determined as 54 nM. Further, the efflux ratio at 0.1 uM in the data set with MDR1 (Pgp) and BCRP was determined as 0.6.
For `C=CC(=O)N1CCN2Cc3c(F)c(F)c(-c4c(O)cccc4Cl)c(Cl)c3OC[C@H]2C1` (single isomer, unassigned) [Example 92], the IC50 on KRasG12C [1] (setting [4]) turned out to be 53 nM. Moreover, the efflux ratio at 0.1 uM with MDR1 (Pgp) and BCRP was found to be 0.7.
Turning to `C#Cc1c(F)c2c(c(F)c1-c1c(O)cccc1Cl)OC[C@H]1CN(C(=O)C=C)CCN1C2` (single isomer, unassigned) [Example 95], the IC50 at KRasG12C [1] (setting [4]) was 19 nM. In addition, the efflux ratio at 0.1 uM with MDR1 (Pgp) and BCRP was 0.9.
For `C=CC(=O)N1CCN2Cc3cc(C#CC)c(-c4c(O)cccc4Cl)c(Cl)c3OC[C@H]2C1` (single isomer, unassigned) [Example 109], at KRasG12C [1] (setting [4]), the IC50 was 14 nM. Moreover, the efflux ratio at 0.1 uM with MDR1 (Pgp) and BCRP was determined as 0.9.
Take `[2H]C([2H])([2H])Oc1nc2c(c(Cl)c1-c1c(O)cccc1Cl)OC[C@H]1CN(C(=O)C=C)CCN1C2` (single isomer, unassigned) [Example 112]: the IC50 at KRasG12C [1] (setting [4]) came to 44 nM. In addition, the efflux ratio at 0.1 uM with MDR1 (Pgp) and BCRP was 1.5.
On to `C=CC(=O)N1CCN2C(=O)c3c(O)cc(-c4c(O)cccc4F)c(Cl)c3OC[C@H]2C1` [Example 6, (12aR)-10-chloro-9-(2-fluoro-6-hydroxyphenyl)-7-hydroxy-2-(prop-2-enoyl)-1,2,3,4,12,12a-hexahydro-6H-pyrazino[2,1-c][1,4]benzoxazepin-6-one], for which, at KRasG12C [1] (setting [4]), the IC50 was 103 nM.
As to `C=CC(=O)N1CCN2Cc3c(-n4ccnc4)cc(-c4c(O)cccc4F)c(Cl)c3OC[C@H]2C1` [Example 15, 1-[(12aR)-10-Chloro-9-(2-fluoro-6-hydroxyphenyl)-7-(1H-imidazol-1-yl)-3,4,12,12a-tetrahydro-6H-pyrazino[2,1-c][1,4]benzoxazepin-2(1H)-yl]prop-2-en-1-one], the IC50 at KRasG12C [1] (setting [4]) is 1280 nM.
On to `C=CC(=O)N1CCN2Cc3c(C#N)cc(-c4c(O)cccc4F)c(Cl)c3OC[C@H]2C1` [Example 16, (12aR)-10-Chloro-9-(2-fluoro-6-hydroxyphenyl)-2-(prop-2-enoyl)-1,2,3,4,12,12a-hexahydro-6H-pyrazino[2,1-c][1,4]benzoxazepine-7-carbonitrile], for which the 50% inhibitory concentration (IC50) at KRasG12C [1] (setting [4]) was 430 nM.
`C=CC(=O)N1CCN2Cc3c(-n4cccn4)cc(-c4c(O)cccc4F)c(Cl)c3OC[C@H]2C1` [Example 17, 1-[(12aR)-10-Chloro-9-(2-fluoro-6-hydroxyphenyl)-7-(1H-pyrazol-1-yl)-3,4,12,12a-tetrahydro-6H-pyrazino[2,1-c][1,4]benzoxazepin-2(1H)-yl]prop-2-en-1-one]: the IC50 at KRasG12C [1] (setting [4]) turned out to be 361 nM.
On to `C=CC(=O)N1CCN2Cc3c(Cl)nc(-c4c(O)cccc4F)c(Cl)c3OC[C@H]2C1` [Example 68, 1-[(6aR)-1,4-Dichloro-3-(2-fluoro-6-hydroxyphenyl)-6a,7,9,10-tetrahydro-12H-pyrazino[2,1-c]pyrido[3,4-f][1,4]oxazepin-8(6H)-yl]prop-2-en-1-one], for which, on KRasG12C [1] (setting [4]), the IC50 is 790 nM.
Turning to `C=CC(=O)N1CCN2Cc3c(c(Cl)c(-c4c(O)cccc4F)[nH]c3=O)OC[C@H]2C1` [Example 69, (6aR)-4-Chloro-3-(2-fluoro-6-hydroxyphenyl)-8-(prop-2-enoyl)-2,6,6a,7,8,9,10,12-octahydro-1H-pyrazino[2,1-c]pyrido[3,4-f][1,4]oxazepin-1-one], the IC50 at KRasG12C [1] (setting [4]) is 618 nM.
In the case of `C#Cc1cc2c(c(Cl)c1-c1c(O)cccc1Cl)OC[C@H]1CN(C(=O)C=C)CCN1C2` [Example 78, 1-[(12aR)-10-Chloro-9-(2-chloro-6-hydroxyphenyl)-8-ethynyl-3,4,12,12a-tetrahydro-6H-pyrazino[2,1-c][1,4]benzoxazepin-2(1H)-yl]prop-2-en-1-one], the IC50 on KRasG12C [1] (setting [4]) is 19.3 nM. For the same molecule, the efflux ratio at 0.1 uM in the data set with MDR1 (Pgp) and BCRP was found to be 0.7.
On to `C=CC(=O)N1CCN2Cc3cc(COC)c(-c4c(O)cccc4Cl)c(Cl)c3OC[C@H]2C1` [Example 114, 1-[(12aR)-10-Chloro-9-(2-chloro-6-hydroxyphenyl)-8-(methoxymethyl)-3,4,12,12a-tetrahydro-6H-pyrazino[2,1-c][1,4]benzoxazepin-2(1H)-yl]prop-2-en-1-one], for which the IC50 at KRasG12C [1] (setting [4]) was 83 nM.

The record behind these values is patent US12410187B2, “Fused tricyclic compounds useful as anticancer agents” (ASTRAZENECA AB, priority 2019, dated 2025).
